Reference: PubChem BioAssay (NCI)
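Interpolation was linear, between the two tested concentrations surrounding the appropriate level; five concentrations were tested over 48 hours in 96-well plates. GI50: concentration for 50% inhibition of growth. TGI: total growth inhibition.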

Columns and labels:
Assay in all cases: NCI anticancer screen, dose series, 48 h
[1] = test system: CCRF-CEM leukemia
[2] = test system: EKVX NSCLC
[3] = test system: HCT-116 colon
[4] = test system: IGROV1 ovarian
[5] = test system: MCF7 breast
[6] = test system: MOLT-4 leukemia
[7] = test system: PC-3 prostate
[8] = test system: RXF 393 renal
[9] = test system: SW-620 colon
[10] = test system: U251 CNS

Row | Structure (SMILES) | GI50 [1] | TGI [1] | GI50 [2] | TGI [2] | GI50 [3] | TGI [3] | GI50 [4] | TGI [4] | GI50 [5] | TGI [5] | GI50 [6] | TGI [6] | GI50 [7] | TGI [7] | GI50 [8] | TGI [8] | GI50 [9] | TGI [9] | GI50 [10] | TGI [10]
1 | O=C(CN1CCN(CCN2C(=O)c3cccc4cccc(c34)C2=O)CC1)Nc1ccc2ncsc2c1 | 5.4 µM | 53 µM | 9.79 µM | 39.2 µM | 3.57 µM | 16.4 µM | 7.91 µM | > 100 µM | 4.65 µM | 17.5 µM | 2.87 µM | 15.3 µM | 6.31 µM | 34.6 µM | 6.32 µM | > 100 µM | 3.19 µM | 19.3 µM | 4.39 µM | 17.2 µM
2 | Cc1ccc(S(=O)(=O)OCC(=O)Nc2ccc(C(=O)O)c(O)c2)cc1 | 13.7 µM | 69 µM | 165 µM | 332 µM | 20.5 µM | 69 µM | 18 µM | 92.3 µM | 23.9 µM | 121 µM | 16.5 µM | 87.9 µM | 30.4 µM | 131 µM | 16.5 µM | 85 µM | 43.7 µM | 145 µM | 16.3 µM | 34.5 µM
3 | O=C(NCCCl)NCCN1c2nc3ccccc3cc2Sc2cc3ccccc3nc21 | 0.3 µM | 3.62 µM | 3.45 µM | > 44.1 µM | 0.8 µM | 3.43 µM | 0.71 µM | 25.3 µM | 1.02 µM | 2.59 µM | 0.861 µM | – | 0.719 µM | 20.1 µM | 6.45 µM | 27.9 µM | 1.16 µM | 2.95 µM | 1.93 µM | 12.3 µM
